From patent US7884093B2, “Progesterone for the treatment or prevention of spontaneous preterm birth” (priority 2007, dated 2011)

Experiments:
[1] = system: pregnant women at risk of preterm birth; settings: cited from earlier work
[2] = system: cervix length of pregnant women; assay: Cervical length by transvaginal ultrasound at baseline and at 28 weeks of gestation; type: in vivo, human; settings: baseline to 28 weeks gestation, all participants, 6-10 weeks of dosing
Protocol: (§1) Following randomization, daily treatment was initiated by the patient and continued until 37 0/7 weeks' gestational age, occurrence of preterm rupture of membranes, or delivery. Each patient was evaluated at 2-week intervals. All subjects had another transvaginal ultrasound to determine cervical length at 28 weeks of gestation.
Prior to beginning the study, baseline measurements of each of the participant's cervical length were taken and are summarized in FIG. 1. During the study, cervical length measurements were made by ultrasound at both baseline and later at 28 weeks after a period of 6-10 weeks of dosing. The mean cervix length of 3.7 cm was the same for both the treatment and placebo groups, and the range of cervical length for all participants was between 1.1 cm and 7.9 cm. At 28 weeks gestation, each participant's cervix was re-measured and the data was compared to the baseline data, and an unexpected and surprising finding was discovered.

[3] = system: pregnant women with a history of spontaneous preterm birth; assay: Randomized, double-blind, placebo-controlled trial of vaginal progesterone gel on preterm birth; type: in vivo, human
Protocol: In light of the state of the art, a study was conducted to examine the effects of progesterone on preterm labor and premature birth in women with a history of a previous preterm birth. […] The selection, categorization, and breakdown of the two groups is outlined in the flow chart of FIG. 2. The study was a prospective, randomized, placebo-controlled, double-blind, multicenter trial in pregnant subjects at high risk of spontaneous preterm delivery. The study participants were screened from 16 0/7 and 22 6/7 weeks gestational age. Subjects were randomized to drug or placebo from 18 0/7 to 22 6/7 weeks.
(§2) Subjects meeting the study criteria were enrolled by the investigator between 18 0/7 and 22 6/7 weeks and received identically packaged, sequentially numbered progesterone or placebo vaginal gel in a 1:1 ratio. A SAS (SAS Institute Inc., Cary, N.C., USA) procedure for variable block size was used to generate a randomization schedule stratified by study site and by inclusion criteria (prior preterm birth or short cervix). Quintiles, Inc. (Kansas City, Mo., USA) generated the randomization sequences, which were confidentially provided to the packaging company. Treatment allocation was concealed by an identical packaging and labelling process performed by Aptuit, Inc. (Mount Laurel, N.J., USA). The study patients, obstetric care providers, study investigators, study coordinators, and study monitors were blind to the exposure status (progesterone or placebo) of all study patients.
Subjects were randomized in a 1:1 ratio to receive PROCHIEVE® 8% (vaginally administered 90 mg natural progesterone gel) or placebo vaginal gel. All women performed self-dosing on a daily basis of their assigned study medication, either PROCHEIVE® (progesterone) or placebo.
Statistical analysis was based on the intent-to-treat principle.
Patients who were currently or previously enrolled in another investigational study within 1 month prior to screening for the present study were not included in the trial. Patients were also restricted from participation in the trial if the present pregnancy was complicated by a major fetal anomaly or a known chromosome disorder, or was a multifetal gestation. Patients with a cervical cerclage in place, or those intending to have one placed during the current pregnancy, were excluded from study participation, as were those with signs of preterm rupture of membranes, vaginal bleeding, amnionitis, or preterm labor at enrollment.
The study drug was packaged and labelled according to the 1:1 randomization scheme provided by Quintiles, Inc (Kansas City, Mo., USA). A SAS (SAS Institute Inc., Cary, N.C., USA) procedure for variable block size was used to generate the randomization schedule stratified by study site. […] The study drug (Prochieve® 8% progesterone gel) and placebo (Replens®) were provided by Columbia Laboratories, Inc. (Livingston, N.J., USA). Patients were instructed to self-administer the full applicator of vaginal gel at approximately the same time daily, preferably in the morning. Patients received a 2-week supply of the allocated treatment at the time of randomization, and at every 2-week study visit thereafter. All drug supplies were to be brought in at each visit at all study centers, and compliance with the study medication was determined from returned empty wrappers and unused wrappers. Percent compliance was assessed as total treatment duration compliance: (total applicators used/total dosing days)×100. Total dosing days was defined as the interval from enrollment to either the date of preterm premature rupture of membranes, the date of preterm birth without accompanying ruptured membranes, or 37 0/7 weeks' gestation.
The occurrence of adverse events was queried at each 2-week study visit at all centers by asking if the patient had any complaints or problems. Subjects received an extra 1-week drug supply when treatment was initiated in case they could not make the next regularly scheduled appointment.

[4] = system: pregnant women with a short cervix; assay: Randomized trial, analysis of women with a shortened cervix in the midtrimester; type: in vivo, human
Protocol: The study further included women without a history of preterm birth and having a short cervix at the time of enrollment. […] The lowest quartile (≦3.2 cm) was combined with the short cervix only patients and subdivided sequentially and the primary and secondary outcomes for women with cervical lengths of ≦3.0 cm and <2.8 cm at the time of enrollment were analyzed. There were an insufficient number of patients with even shorter cervical lengths available for further analysis. For the purposes of the study, the criteria for short cervix was set at less than 2.8 cm.
The study included women with a documented history of spontaneous preterm birth (<35 weeks) in a singleton pregnancy in the immediate preceding parity regardless of cervical length, and women without a history of preterm birth but with midtrimester cervical shortening (≦2.5 cm) in the current pregnancy were offered enrollment in the study at 18 0/7-22 6/7 weeks of gestation. Recruitment began in April 2004 and the last patient delivered Jan. 8, 2007.
Therefore, women were excluded if any of the following conditions were present: age <18 or >45 years; multifetal gestation; history of an adverse reaction to progesterone or any component present in the treatment medication; treatment with progesterone within 4 weeks preceding enrollment; or current treatment for a seizure disorder, psychiatric disorder, or chronic hypertension. […] Patients who were currently or previously enrolled in another investigational study within one month prior to randomization were not included.
Patients were also restricted from participation in the trial if the present pregnancy was complicated by a major fetal anomaly or a known chromosome disorder. Patients with a cervical cerclage in place, or those intending to have one placed during the current pregnancy, were excluded from the study, as were those with signs of preterm rupture of membranes, vaginal bleeding, amnionitis, or preterm labor at enrollment.
as §2, with “Women with a history of spontaneous preterm birth in the preceding pregnancy regardless of cervical length or women without a history of preterm birth but with midtrimester cervical shortening in the current pregnancy were screened by the investigator or study coordinator between 16 0/7 and 22 6/7 weeks of gestation. Prior history of spontaneous preterm birth was confirmed by evaluation of the patient's medical records before enrollment. Gestational age was based on the patient's last menstrual period and correlated with an ultrasound biometry algorithm. Each patient had at least one ultrasound examination before randomization to confirm gestational age and rule out major fetal anomalies, and a transvaginal scan to determine the length of the cervix. Subjects” for “Subjects”
as §1

[5] = ITT, history of spontaneous preterm birth
[6] = neonates, history of spontaneous preterm birth
[7] = baseline cervical length ≦3.0 cm, total 58
[8] = cervical length <2.8 cm, versus placebo

CC(=O)[C@H]1CC[C@H]2[C@@H]3CCC4=CC(=O)CC[C@]4(C)[C@H]3CC[C@]12C [progesterone]
occurrence of perinatal death ([1]; Dodd et al. meta-analysis of randomized trials, versus placebo): no statistically significant difference | frequency of recurrent preterm birth ([1]; O'Brien et al., high risk women selected by a history of spontaneous preterm birth, prophylactic vaginal gel): does not effectively reduce | mean decrease in cervix length [2]: 0.44 cm | admissions for preterm labor [3, 5]: 25.6% | head circumference of the neonates [3, 5]: 32.3±3.34 cm | mean birth weight of the neonates [3, 5]: 2680±710 gm | mean gestational age at delivery [3, 5]: 36.6 weeks | rate of preterm birth at <37 0/7 weeks [3, 5]: 41.7% | rate of preterm birth at ≦28 0/7 weeks [3, 5]: 3.2% | rate of preterm birth at ≦35 0/7 weeks [3, 5]: 22.7% | rate of preterm rupture of membranes [3, 5]: 12.0% | rate of stillbirth/intrauterine fetal demise [3, 5]: 1.6% | rate of preterm birth at ≦32 0/7 weeks of gestation (primary outcome) ([3]; ITT, history of spontaneous preterm birth, 8% progesterone vaginal gel 90 mg once daily): 10.0% | 1-minute APGAR score, median ([3]; neonates): 8 | 5-minute APGAR score, median ([3]; neonates): 9 | occurrence of grade 3 or 4 intraventricular haemorrhage [3, 6]: 0.3% | occurrence of necrotizing enterocolitis [3, 6]: 1.0% | occurrence of newborn respiratory distress syndrome [3, 6]: 11.0% | rate of admission to a neonatal intensive care unit [3, 6]: 17.5% | number of days from admission to delivery ([3]; patients admitted for treatment of preterm labor): 30 days | mean gestational age at delivery, infant morbidity or mortality, or other maternal or neonatal outcome measure ([3]; versus placebo, in words): no difference | treatment emergent adverse events ([3]; versus placebo, in words): similar | frequency of preterm birth at ≦32 weeks ([3]; versus placebo, in words, history of spontaneous preterm birth): did not decrease | frequency of preterm birth at ≦32 weeks ([3]; versus placebo, in words, history of spontaneous preterm birth, listed as vaginal progesterone gel): does not effectively reduce | time to delivery (Kaplan-Meier curve) ([4]; baseline cervical length greater than 3.2 cm, versus placebo): no statistically significant difference | time to delivery (Kaplan-Meier curve) ([4]; baseline cervical length less than 2.8 cm, versus placebo): probability of not delivering over a longer gestation period | time to delivery (Kaplan-Meier curve) ([4]; baseline cervical length less than or equal to 3.0 cm, versus placebo): probability of not delivering over a longer gestation period | time to delivery (Kaplan-Meier curve) ([4]; baseline cervical length less than or equal to 3.2 cm, versus placebo): probability of not delivering over a longer gestation period | Births >32 Weeks, Number ([4]; baseline cervical length ≦2.8 cm, total 19): 19 | Births >32 Weeks, Number [4, 7]: 54 | Births ≦32 Weeks, Number [4, 7]: 4 | NICU admissions ([4]; cervical length <2.8 cm): 15.8% | fetal/infant deaths ([4]; cervical length <2.8 cm): none | length of NICU stay ([4]; cervical length <2.8 cm): 1.1 days | preterm deliveries at less than or equal to 28 weeks, number ([4]; cervical length <2.8 cm): no preterm deliveries | rate of neonatal respiratory distress syndrome ([4]; cervical length <2.8 cm): 5.3% | total neonatal hospital days ([4]; cervical length <2.8 cm): 5.8 days | rate of preterm birth at ≦32 weeks ([4]; cervical length <2.8 cm at enrollment, 19 on progesterone): 0% | reduction of the number of preterm delivery at less than 35 weeks [4, 8]: about half | reduction of the number of preterm delivery at less than or equal to 37 weeks [4, 8]: about half | delivering ≦32 weeks gestation ([4]; short cervix only population, no history of preterm birth, 4 patients on progesterone): 0
